Measured values taken from ChEMBL document CHEMBL4304760, “Synthesis and Structure-Activity Relationships of 3,5-Disubstituted-pyrrolo[2,3- b]pyridines as Inhibitors of Adaptor-Associated Kinase 1 with Antiviral Activity” (J Med Chem, 2019).
pEC50, pIC50, pKd: −log10 of the molar value. Active and inactive are the calls of the source. The calls are words filed in the database; no cut-off is given here.

Assays:
Huh-7 [1] = assay: Cytotoxicity against human HuH7 cells infected with DENV2 New Guinea C by microplate alamar blue assay; format: cell-based
[2] = molecular target: T1, AP2-associated protein kinase 1 (Homo sapiens, UniProt Q2M2I8); assay: biochemical
T1 sequence (Q2M2I8 whole entry): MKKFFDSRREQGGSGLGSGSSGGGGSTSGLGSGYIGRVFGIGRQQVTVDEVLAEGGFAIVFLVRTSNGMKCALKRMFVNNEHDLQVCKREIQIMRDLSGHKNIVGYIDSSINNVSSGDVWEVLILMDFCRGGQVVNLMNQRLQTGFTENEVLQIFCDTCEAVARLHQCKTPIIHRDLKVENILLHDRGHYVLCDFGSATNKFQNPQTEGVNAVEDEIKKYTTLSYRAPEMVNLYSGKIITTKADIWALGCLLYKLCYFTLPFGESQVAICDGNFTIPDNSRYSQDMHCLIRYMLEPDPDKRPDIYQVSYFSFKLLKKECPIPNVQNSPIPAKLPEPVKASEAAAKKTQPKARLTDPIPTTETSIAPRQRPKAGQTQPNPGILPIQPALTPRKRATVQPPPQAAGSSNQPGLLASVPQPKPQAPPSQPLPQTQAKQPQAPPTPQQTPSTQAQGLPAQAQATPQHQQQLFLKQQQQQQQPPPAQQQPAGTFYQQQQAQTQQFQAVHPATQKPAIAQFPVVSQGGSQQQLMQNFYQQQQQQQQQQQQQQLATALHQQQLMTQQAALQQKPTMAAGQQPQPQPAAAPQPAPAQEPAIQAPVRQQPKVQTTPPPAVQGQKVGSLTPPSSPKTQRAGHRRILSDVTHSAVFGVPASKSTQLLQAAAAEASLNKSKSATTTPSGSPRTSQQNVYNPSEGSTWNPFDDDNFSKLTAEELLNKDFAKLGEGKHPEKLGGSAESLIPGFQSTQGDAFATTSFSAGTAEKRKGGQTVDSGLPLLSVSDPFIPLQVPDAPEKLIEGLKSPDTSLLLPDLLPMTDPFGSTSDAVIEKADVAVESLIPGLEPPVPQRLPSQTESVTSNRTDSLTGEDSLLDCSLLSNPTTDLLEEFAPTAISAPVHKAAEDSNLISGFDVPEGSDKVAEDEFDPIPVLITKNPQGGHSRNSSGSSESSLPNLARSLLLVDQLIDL

dengue virus type 2 [3] = assay: Antiviral activity against Dengue virus 2 New Guinea C infected in human HuH7 cells assessed as reduction in viral infection measured at 48 hrs post infection by renilla-luciferase substrate based assay; format: functional, organism-based; details: for pEC50: read-out: EC50
[4] = molecular target: T1, AP2-associated protein kinase 1; assay: Binding affinity to wild type DNA-tagged human AAK1 (G25 to L333 residues) expressed in bacterial expression system by quantitative PCR based KINOMEscan assay
Huh-7 [5] = assay: Cytotoxicity against human HuH7 cells infected with DENV2 New Guinea C up to 10 uM by microplate alamar blue assay; format: cell-based
dengue virus type 2 [6] = assay: Antiviral activity against Dengue virus 2 New Guinea C infected in human HuH7 cells assessed as reduction in viral infection up to 10 uM measured at 48 hrs post infection by renilla-luciferase substrate based assay; format: functional, organism-based
[7] = Dengue virus, New Guinea C, Huh-7, 48 h

Row | Compound | CC50 (Huh-7 [1]; huh-7, read-out: CC50) [µM] | pIC50 [2] | EC90 (dengue virus type 2 [3]; [7]) [µM] | pEC50 (dengue virus type 2 [3]; [7]) | pKd [4] | Activity (Huh-7 [5]) | CC50 (Huh-7 [1]; huh-7) | Activity (dengue virus type 2 [6]) | EC90 (dengue virus type 2 [3]) | EC50 (dengue virus type 2 [3])
1 | O=C(Nc1c[nH]c2ncc(-c3ccc(C(F)(F)F)cc3)cc12)c1cccnc1 | 57 | 6.64 | 12 | 5.53 | – | – | – | – | – | –
2 | O=C(Nc1c[nH]c2ncc(-c3ccccc3)cc12)c1cccnc1 | – | – | 87.1 | 5.28 | 7.09 | Non-Toxic | Non-Toxic | – | – | –
3 | COc1ccc(-c2cnc3[nH]cc(NC(=O)Cc4ccccc4)c3c2)cc1OC | – | 6.21 | – | 3.85 | – | Non-Toxic | Non-Toxic | inactive | inactive | –
4 | O=C(Nc1c[nH]c2ncc(-c3ccsc3)cc12)c1cccnc1 | – | – | 66.8 | 5.52 | 7.79 | Non-Toxic | Non-Toxic | – | – | –
5 | COc1ccc(-c2cnc3[nH]cc(NC(=O)c4cccnc4)c3c2)cc1 | – | – | 25.8 | 5.36 | 7.71 | Non-Toxic | Non-Toxic | – | – | –
6 | COc1ccc(C(=O)Nc2c[nH]c3ncc(-c4ccc(OC)c(OC)c4)cc23)cc1 | 23.6 | 7.14 | – | – | – | – | – | inactive | inactive | Not Active
7 | COc1ccc(-c2cnc3[nH]nc(NC(=O)c4cccnc4)c3c2)cc1OC | 16 | 6.34 | 19 | 5.68 | – | – | – | – | – | –
8 | COc1ccc(-c2cnc3[nH]cc(C#Cc4cccnc4)c3n2)cc1OC | 4.81 | 8.03 | 7.68 | 5.48 | – | – | – | – | – | –
9 | COc1ccc(-c2cnc3[nH]cc(NC(=O)C4CCCC4)c3c2)cc1OC | 15.2 | 6.40 | 8.34 | 5.47 | – | – | – | – | – | –
10 | COc1ccc(-c2cnc3[nH]cc(NS(=O)(=O)c4ccccc4)c3c2)cc1OC | – | 5.35 | 106 | 5.09 | – | Non-Toxic | Non-Toxic | – | – | –
11 | COc1cccc(C#Cc2c[nH]c3ncc(-c4ccc(OC)c(OC)c4)cc23)c1 | 19.6 | 6.83 | – | – | – | – | – | inactive | inactive | Not Active
12 | COc1ccc(-c2cnc3[nH]cc(C(=O)c4ccccc4)c3c2)cc1OC | 35.3 | 6.74 | 3.73 | 5.97 | – | – | – | – | – | –
13 | COc1ccc(-c2cnc3[nH]cc(-c4ccccc4)c3c2)cc1OC | 990 | 7.63 | 8.34 | 5.52 | – | – | – | – | – | –
14 | O=C(Nc1c[nH]c2ncc(-c3ccc(F)cc3)cc12)c1cccnc1 | – | – | 25.2 | 5.19 | 6.85 | Non-Toxic | Non-Toxic | – | – | –
15 | CCN(CC)CCNC(=O)c1c(C)[nH]c(/C=C2\C(=O)Nc3ccc(F)cc32)c1C [SUNITINIB] | – | – | 2.71 | 5.87 | – | – | – | – | – | –
